From patent US20100016221A1, “METHOD OF DEGRADING PROTEIN BY CHAPERONE-MEDIATED AUTOPHAGY” (RIKEN, priority 2008, published 2010)

How the values were obtained:
150Q Neuro2a cells = assay: Cell death assay (propidium iodide uptake) in 150Q Neuro2a cells; type: cell-based, mouse; settings: after 60 hours of induction
Procedure: (§1) Mouse neuroblastoma (Neuro2a) cells were maintained in Dulbecco's modified Eagle's medium (Sigma) supplemented with 10% heat-inactivated fetal bovine serum (Sigma), 100 U/ml penicillin and 100 μg/ml streptomycin (Invitrogen) at 37° C. in an atmosphere containing 5% CO2 and 95% air. Establishment of stable Neuro2a cell lines with the ecdysone-inducible mammalian expression system (Invitrogen), that express tNhtt-EGFP-16Q (16Q Neuro2a cells), tNhtt-EGFP-150Q (150Q Neuro2a cells) and tNhtt-EGFP-150Q-nls (150Q-nls Neuro2a cells) has been described earlier (T. Nagai et al., supra, H. Doi et al., supra, E. A. Zemskov et al., J Neurochem. 87, 2 (2003)). Neuro2a cells were differentiated with 5mM dbcAMP (N^6, 2′-O-dibutyryladenosine-3′,5′-cyclic monophosphate sodium salt) (Nacalai Tesque) and induced to express tNhtt-polyQ with 2 μM ponasterone A (ponA; Invitrogen) for indicated times. Neuro2a/FRT/TR cell line was generated as described in the protocol for Flp-in/T-Rex system (Invitrogen). […]
(§2) For quantification of cell death, 5 μg/ml each of Hoechst 33342 and propidium iodide (PI) were added to differentiated and induced Neuro2a cells transiently transfected with either of the tested constructs (FIG. 6A). After 10 minutes at 37° C., the number of cells with PI uptake over the total number of cells was calculated by ArrayScan.

150Q-nls Neuro2a cells = assay: Cell death assay (propidium iodide uptake) in 150Q-nls Neuro2a cells; type: cell-based, mouse; settings: after 48 hours of induction
Procedure: as §1, §2

tNhtt-60Q = molecular target: T1, tNhtt-60Q (Homo sapiens, UniProt P42858, INS38QQQQQQQQQQQQQQQQQQQQQQQQQQQQQQQQQQQQQQQ); assay: Dot blot of purified intact lysosomes from Neuro2a cells co-transfected with tNhtt-60Q; type: cell-based; settings: 16 hours
T1 construct: N-terminal fragment of human huntington exon 1 (tNhtt) encoding 60 CAG repeats; expressed in transfected cells; host or cells: Neuro2a cells, transient co-transfection
Procedure: We used a modification of the previously described method for the purification of lysosomes from CHO cells (E. A. Madden, B. Storrie, Anal. Biochem. 163, 2 (1987), E. A. Madden, J. B. Wirt, B. Storrie, Arch. Biochem. Biophys. 257, 1 (1987)). Neuro2a cells grown in 10 cm dishes were co-transfected with tNhtt-60Q and tested constructs, and after 16 hrs of incubation, cells were washed with ice cold PBS and homogenized by ten strokes. The homogenate was centrifuged at 1300 g for 5 min. The supernatant was decanted and placed on ice. The nuclear fraction was resuspended in 0.25 M sucrose and centrifuged at 1300 g for 5 min. This step was repeated 3 times and the supernatants from each wash were pooled to give a total post-nuclear supernatant (PNS). All the solutions used for the preparation of the discontinuous gradient were in 0.25 M sucrose. Gradients were prepared in cellulose nitrate tubes for Beckman SW40 rotor. Two ml of 35% Histodenz (Sigma) was overlaid with 2 ml of 17% Histodenz followed by 5 ml of 6% Percoll (Sigma). The tubes were then filled with 4.8 ml of PNS. […]
Cells were washed twice with ice-cold PBS, scraped, and resuspended in lysis buffer (0.5% Triton X-100 in PBS, 0.5 mM phenylmethylsulfonyl fluoride, Complete protease inhibitor mixture (Roche Applied Sciences)). […] Immunoreactive proteins were detected with enhanced chemiluminescence reagents (Amersham Biosciences). […]

T1 sequence (P42858 with tags, fused parts or gaps with the stated changes): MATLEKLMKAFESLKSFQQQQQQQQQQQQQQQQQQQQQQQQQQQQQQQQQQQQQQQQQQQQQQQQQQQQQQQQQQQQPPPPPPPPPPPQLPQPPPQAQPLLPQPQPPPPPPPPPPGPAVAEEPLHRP

Substance: HSC70bm-(QBP1)2 (MARVKKDQAEPLHRKFERQPPGSNWKWWPGIFDSNWKWWPGIFD) [HQ]
- decrease of the percentage of PI-positive cells (150Q Neuro2a cells): 37.4%
- decrease of the percentage of PI-positive cells (150Q-nls Neuro2a cells): 47.2%
- translocation of expanded polyQ toward the lysosomes (tNhtt-60Q): efficient translocation
